The record followed here is patent US12662451B2, “Chemical compounds and uses thereof” (GLAXOSMITHKLINE INTELLECTUAL PROPERTY (NO.4) LIMITED, priority 2023, dated 2026).

Data set [1] has as its target T1, recombinant full-length WRN protein (1-1432) (Homo sapiens, UniProt Q14191).
T1 construct: recombinant full-length WRN protein (1-1432)
The data set can be described thus: WRN unwinding activity, fluorogenic 384-well assay (Example A). Conditions: WRN unwinding activity, 4 hr; Table 2; read-out: 4 hr UNW pIC50 (converted). In kind it is biochemical. The gist of the method: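 200 pM enzyme (2× stock) preincubated with compound 4 h at ambient temperature, then 200 μM ATP and 12 nM quenched TAMRA-labelled dsDNA (2× stocks) added for 60 min; EDTA-quenched. Buffer 25 mM Tris pH 8.0, 5 mM NaCl, 2 mM MgCl2. Fluorescence at 525/598 nm; pIC50 from four-parameter fit.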

In data set [2] the test system is SW48 human colorectal cancer cells (MSI-H cancer cells). As to the kind of experiment: SW48 cell viability, CellTiter-Glo, 120 hours (Example B). The conditions noted are these: Table 2; for CC50: Homo sapiens, SW48, 120 h, read-out: SW48 pCC50, SW48 cell viability, 120 hours incubation (converted). Background: In ATP-based viability assays light output follows the ATP content of the culture.

Counter-ions that a name gives are not always drawn.

T1 sequence (Q14191 whole entry): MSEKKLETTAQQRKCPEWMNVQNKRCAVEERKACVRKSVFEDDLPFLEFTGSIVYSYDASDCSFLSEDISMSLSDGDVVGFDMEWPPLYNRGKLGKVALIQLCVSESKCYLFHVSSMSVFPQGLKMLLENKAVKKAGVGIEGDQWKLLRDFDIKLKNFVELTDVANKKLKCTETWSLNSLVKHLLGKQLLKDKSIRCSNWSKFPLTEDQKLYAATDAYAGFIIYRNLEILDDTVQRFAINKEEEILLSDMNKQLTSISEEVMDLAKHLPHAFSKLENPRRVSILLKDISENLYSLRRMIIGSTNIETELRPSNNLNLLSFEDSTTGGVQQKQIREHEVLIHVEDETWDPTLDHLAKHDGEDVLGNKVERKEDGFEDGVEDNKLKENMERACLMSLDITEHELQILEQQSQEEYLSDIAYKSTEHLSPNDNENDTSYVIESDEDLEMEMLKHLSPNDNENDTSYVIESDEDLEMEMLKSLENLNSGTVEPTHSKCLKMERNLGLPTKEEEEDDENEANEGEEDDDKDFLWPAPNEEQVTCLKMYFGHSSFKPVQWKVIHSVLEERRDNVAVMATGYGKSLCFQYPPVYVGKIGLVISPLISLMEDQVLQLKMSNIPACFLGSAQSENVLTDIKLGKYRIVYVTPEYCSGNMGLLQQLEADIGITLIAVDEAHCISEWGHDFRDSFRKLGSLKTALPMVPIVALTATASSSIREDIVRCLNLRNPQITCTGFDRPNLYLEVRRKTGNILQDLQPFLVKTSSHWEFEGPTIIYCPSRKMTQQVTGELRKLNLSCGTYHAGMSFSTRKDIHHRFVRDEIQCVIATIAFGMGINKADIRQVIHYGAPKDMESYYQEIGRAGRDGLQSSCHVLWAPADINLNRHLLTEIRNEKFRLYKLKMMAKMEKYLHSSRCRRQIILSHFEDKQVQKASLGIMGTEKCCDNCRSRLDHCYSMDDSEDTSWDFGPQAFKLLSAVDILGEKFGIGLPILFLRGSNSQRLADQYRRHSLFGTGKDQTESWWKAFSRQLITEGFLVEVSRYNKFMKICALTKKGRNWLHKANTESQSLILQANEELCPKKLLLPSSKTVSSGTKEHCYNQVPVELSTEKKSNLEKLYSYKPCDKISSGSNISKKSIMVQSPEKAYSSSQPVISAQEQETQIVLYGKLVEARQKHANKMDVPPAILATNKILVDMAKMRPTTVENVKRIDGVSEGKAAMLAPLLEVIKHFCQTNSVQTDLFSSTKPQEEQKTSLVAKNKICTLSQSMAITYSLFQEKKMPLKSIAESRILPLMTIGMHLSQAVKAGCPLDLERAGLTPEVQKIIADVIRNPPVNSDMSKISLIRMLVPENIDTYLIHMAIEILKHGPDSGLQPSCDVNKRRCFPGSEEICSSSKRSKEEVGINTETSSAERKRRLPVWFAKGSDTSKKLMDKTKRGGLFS

With `Cc1nc2cc(S(=O)(=O)N3CCOc4cc([C@H]5CCC[C@@H](C(=O)Nc6ccc(C(F)(F)F)cc6F)[C@@H]5C(=O)O)ccc43)ccc2n1C` (single isomer, unassigned) [Example 241], the IC50 in data set [1] was 5.01 nM. Moreover, in data set [2], the CC50 was 1260 nM.

On to `Cc1nc2cc(S(=O)(=O)N(C)c3ccc([C@H]4CCC[C@@H](C(=O)Nc5ccc(C(F)(F)F)cc5F)[C@@H]4C(=O)O)cc3)cc([C@@H]3CCCNC3)c2n1C` (single isomer, unassigned) [Example 268, (1R,2R,6S)-2-((2-fluoro-4-(trifluoromethyl)phenyl)carbamoyl)-6-(4-((N,1,2-trimethyl-7-((S*)-piperidin-3-yl)-1H-benzo[d]imidazole)-5-sulfonamido)phenyl)cyclohexane-1-carboxylic acid hydrochloride], for which, in data set [1], the IC50 is 0.794 nM. In addition, the CC50 in data set [2] is 15800 nM.

With `Cc1nc2cc(S(=O)(=O)N(C)c3ccc([C@@H]4C[C@H](C#N)C[C@H](C(=O)Nc5ccc(C(F)(F)F)cc5F)[C@H]4C(=O)O)cc3)ccc2n1C` (single isomer, unassigned) [Example 286], the IC50 in data set [1] was 100 nM. Also, in data set [2], the CC50 is 12600 nM.

In the case of `Cc1nc2cc(S(=O)(=O)N(C)c3ccc([C@@H]4C[C@H](OCC5CC6CCC(C5)O6)C[C@H](C(=O)Nc5ccc(C(F)(F)F)cc5F)[C@H]4C(=O)O)cc3)ccc2n1C` (single isomer, unassigned) [Example 359], the IC50 in data set [1] is 1580 nM. In data set [2], the CC50 is 12600 nM.

Consider `Cc1nc2cc(S(=O)(=O)N(C)c3ccc([C@@H]4CCC[C@H](C(=O)Nc5ccc(C(F)(F)F)cc5F)[C@H]4C(=O)O)cc3F)ccc2n1C` (single isomer, unassigned) [Example 369], for which, in data set [1], the IC50 is 631 nM. Further, the CC50 in data set [2] was 12600 nM.

Take `Cc1nc2cc(S(=O)(=O)N(C)c3ccc([C@H]4CCC[C@@H](C(=O)Nc5ccc(C(F)(F)F)cc5F)[C@@H]4C(=O)O)c(F)c3)ccc2n1C` (single isomer, unassigned) [Example 375]: the IC50 in data set [1] was 100 nM. Also, the “SW48 pCC50” value in data set [2] (SW48 cell viability, 120 hours incubation) was determined as 4.7.

On to `Cc1nc2cc(S(=O)(=O)N(C)c3ccc([C@@H]4C[C@H](OC(F)F)C[C@H](C(=O)Nc5ccc(C(F)(F)F)cc5F)[C@H]4C(=O)O)cc3)ccc2n1C` (stereo in doubt) [Example 283, rel-(1R,2R,4R,6S)-4-(difluoromethoxy)-2-((2-fluoro-4-(trifluoromethyl)phenyl)carbamoyl)-6-(4-((N,1,2-trimethyl-1H-benzo[d]imidazole)-5-sulfonamido)phenyl)cyclohexane-1-carboxylic acid], for which the IC50 in data set [1] was 631 nM. Also, the CC50 in data set [2] is 20000 nM.

With `CC(=O)N(C)[C@@H]1C[C@H](C(=O)Nc2ccc(C(F)(F)F)cc2F)[C@@H](C(=O)O)[C@H](c2ccc(N(C)S(=O)(=O)c3ccc4c(c3)nc(C)n4C)cc2)C1` (stereo in doubt) [Example 291, rel-(1R,2R,4R,6S)-2-((2-fluoro-4-(trifluoromethyl)phenyl)carbamoyl)-4-(N-methylacetamido)-6-(4-((N,1,2-trimethyl-1H-benzo[d]imidazole)-5-sulfonamido)phenyl)cyclohexane-1-carboxylic acid], the IC50 in data set [1] is 31.6 nM. Moreover, in data set [2], the CC50 was 12600 nM.

As to `Cc1nc2cc(S(=O)(=O)N(C)c3ccc([C@H]4C[C@H](N)C[C@@H](C(=O)Nc5ccc(C(F)(F)F)cc5F)[C@@H]4C(=O)O)cc3)ccc2n1C` (stereo in doubt) [Example 300, rel-(1R,2R,4S,6S)-4-amino-2-((2-fluoro-4-(trifluoromethyl)phenyl)carbamoyl)-6-(4-((N,1,2-trimethyl-1H-benzo[d]imidazole)-5-sulfonamido)phenyl)cyclohexane-1-carboxylic acid], the IC50 in data set [1] was 1.58 nM. Also, in data set [2], the CC50 is 12600 nM.

As to `Cc1nc2cc(S(=O)(=O)N(C)c3ccc([C@@H]4C[C@@H](N5CCC(F)(F)C5)C[C@H](C(=O)Nc5ccc(C(F)(F)F)cc5F)[C@H]4C(=O)O)cc3)ccc2n1C` (stereo in doubt) [Example 303, rel-(1R,2R,4S,6S)-4-(3,3-difluoropyrrolidin-1-yl)-2-((2-fluoro-4-(trifluoromethyl)phenyl)carbamoyl)-6-(4-((N,1,2-trimethyl-1H-benzo[d]imidazole)-5-sulfonamido)phenyl)cyclohexane-1-carboxylic acid], the IC50 in data set [1] is 3980 nM. For the same compound, the CC50 in data set [2] was 25100 nM.

Consider `Cc1nc2cc(S(=O)(=O)N(C)c3ccc([C@H]4C[C@H](N5CCC(F)(F)C5)C[C@@H](C(=O)Nc5ccc(C(F)(F)F)cc5F)[C@@H]4C(=O)O)cc3)ccc2n1C` (stereo in doubt) [Example 304, rel-(1R,2R,4S,6S)-4-(3,3-difluoropyrrolidin-1-yl)-2-((2-fluoro-4-(trifluoromethyl)phenyl)carbamoyl)-6-(4-((N,1,2-trimethyl-1H-benzo[d]imidazole)-5-sulfonamido)phenyl)cyclohexane-1-carboxylic acid], for which the IC50 in data set [1] is 15.8 nM. In addition, the CC50 in data set [2] is 12600 nM.

For `Cc1nc2cc(S(=O)(=O)N(C)c3ccc([C@@H]4C[C@H](OC(C)C)C[C@H](C(=O)Nc5ccc(C(F)(F)F)cc5F)[C@H]4C(=O)O)cc3)ccc2n1C` (stereo in doubt) [Example 312, rel-(1R,2R,4R,6S)-2-((2-fluoro-4-(trifluoromethyl)phenyl)carbamoyl)-4-isopropoxy-6-(4-((N,1,2-trimethyl-1H-benzo[d]imidazole)-5-sulfonamido)phenyl)cyclohexane-1-carboxylic acid], the IC50 in data set [1] is 158 nM. Further, in data set [2], the CC50 was 12600 nM.

On to `Cc1nc2cc(S(=O)(=O)N(C)c3ccc([C@@H]4C[C@H](OCC5CC5)C[C@H](C(=O)Nc5ccc(C(F)(F)F)cc5F)[C@H]4C(=O)O)cc3)ccc2n1C` (stereo in doubt) [Example 313, rel-(1R,2R,4R,6S)-4-(cyclopropylmethoxy)-2-((2-fluoro-4-(trifluoromethyl)phenyl)carbamoyl)-6-(4-((N,1,2-trimethyl-1H-benzo[d]imidazole)-5-sulfonamido)phenyl)cyclohexane-1-carboxylic acid], for which the IC50 in data set [1] was 251 nM. The CC50 in data set [2] was 20000 nM.

For `Cc1nc2cc(S(=O)(=O)N(C)c3ccc([C@@H]4C[C@H](OC[C@H]5CCOC5)C[C@H](C(=O)Nc5ccc(C(F)(F)F)cc5F)[C@H]4C(=O)O)cc3)ccc2n1C` (stereo in doubt) [Example 318, (1R*,2R*,4R*,6S*)-2-((2-fluoro-4-(trifluoromethyl)phenyl)carbamoyl)-4-(((S)-tetrahydrofuran-3-yl)methoxy)-6-(4-((N,1,2-trimethyl-1H-benzo[d]imidazole)-5-sulfonamido)phenyl)cyclohexane-1-carboxylic acid], the IC50 in data set [1] was 200 nM. Further, the CC50 in data set [2] was 12600 nM.

Turning to `Cc1nc2cc(S(=O)(=O)N(C)c3ccc([C@@H]4C[C@H](OC[C@@H]5CCOC5)C[C@H](C(=O)Nc5ccc(C(F)(F)F)cc5F)[C@H]4C(=O)O)cc3)ccc2n1C` (stereo in doubt) [Example 319, (1R*,2R*,4R*,6S*)-2-((2-fluoro-4-(trifluoromethyl)phenyl)carbamoyl)-4-(((R)-tetrahydrofuran-3-yl)methoxy)-6-(4-((N,1,2-trimethyl-1H-benzo[d]imidazole)-5-sulfonamido)phenyl)cyclohexane-1-carboxylic acid], the IC50 in data set [1] was 316 nM. The CC50 in data set [2] is 12600 nM.

As to `Cc1nc2cc(S(=O)(=O)N(C)c3ccc([C@@H]4C[C@H](OC[C@H]5COCCO5)C[C@H](C(=O)Nc5ccc(C(F)(F)F)cc5F)[C@H]4C(=O)O)cc3)ccc2n1C` (stereo in doubt) [Example 328, (1R*,2R*,4R*,6S*)-4-(((R)-1,4-dioxan-2-yl)methoxy)-2-((2-fluoro-4-(trifluoromethyl)phenyl)carbamoyl)-6-(4-((N,1,2-trimethyl-1H-benzo[d]imidazole)-5-sulfonamido)phenyl)cyclohexane-1-carboxylic acid], the IC50 in data set [1] is 126 nM. In data set [2], the CC50 was 15800 nM.

Turning to `Cc1nc2cc(S(=O)(=O)N(C)c3ccc([C@@H]4C[C@H](N5CCC[C@@H](F)C5)C[C@H](C(=O)Nc5ccc(C(F)(F)F)cc5F)[C@H]4C(=O)O)cc3)ccc2n1C` (stereo in doubt) [Example 345, rel-(1R*,2R*,4R*,6S*)-2-((2-fluoro-4-(trifluoromethyl)phenyl)carbamoyl)-4-((R)-3-fluoropiperidin-1-yl)-6-(4-((N,1,2-trimethyl-1H-benzo[d]imidazole)-5-sulfonamido)phenyl)cyclohexane-1-carboxylic acid], the IC50 in data set [1] was 398 nM. The CC50 in data set [2] was 12600 nM.

For the compound `Cc1nc2cc(S(=O)(=O)N(C)c3ccc([C@@H]4C[C@H](OCC5CCOCC5)C[C@H](C(=O)Nc5ccc(C(F)(F)F)cc5F)[C@H]4C(=O)O)cc3)ccc2n1C` (stereo in doubt) [Example 354, rel-(1R,2R,4R,6S)-2-((2-fluoro-4-(trifluoromethyl)phenyl)carbamoyl)-4-((tetrahydro-2H-pyran-4-yl)methoxy)-6-(4-((N,1,2-trimethyl-1H-benzo[d]imidazole)-5-sulfonamido)phenyl)cyclohexane-1-carboxylic acid], in data set [1], the IC50 is 1580 nM. Moreover, in data set [2], the CC50 is 20000 nM.

For the compound `Cc1nc2cc(S(=O)(=O)N(C)c3ccc([C@@H]4C[C@H](OCC5(C)COC5)C[C@H](C(=O)Nc5ccc(C(F)(F)F)cc5F)[C@H]4C(=O)O)cc3)ccc2n1C` (stereo in doubt) [Example 366, rel-(1R,2R,4R,6S)-2-((2-fluoro-4-(trifluoromethyl)phenyl)carbamoyl)-4-((3-methyloxetan-3-yl)methoxy)-6-(4-((N,1,2-trimethyl-1H-benzo[d]imidazole)-5-sulfonamido)phenyl)cyclohexane-1-carboxylic acid], in data set [1], the IC50 is 126 nM. Besides, the CC50 in data set [2] was 15800 nM.
